This is an account of results in ChEMBL document CHEMBL1155391, “SelSA, selenium analogs of SAHA as potent histone deacetylase inhibitors” (Bioorg Med Chem Lett, 2010).

One assay has as its system HeLa. As to the kind of experiment: Selectivity ratio of IC50 for drug to SAHA against human HDAC in HeLa cell nuclear extract. In kind it is cell-based.
For assay [1], the target named is Histone deacetylase (Homo sapiens) (UniProt Q13547+O15379+Q9UBN7+Q92769+Q9UQL6+Q8WUI4+Q9BY41+Q96DB2+P56524+Q9UKV0+Q969S8). The settings on record: HeLa, at 50 nM.
Description: Inhibition of human HDAC in human HeLa cell nuclear extract at 50 nM after 15 mins by colorimetric assay
For another assay, the target named is Histone deacetylase. Nature of the assay: Inhibition of human HDAC in human HeLa cell nuclear extract after 15 mins by colorimetric assay. Format: cell-based.

SMILES strings stand for the structures. Some results are limits rather than exact numbers.

For orientation: inhibition means the drop in the measured response relative to a control, in per cent. Read a high inhibition as a response far below the control. As usually defined, the IC50 is the concentration that gives 50% inhibition. Read a low IC50 as greater potency in that assay.

Take `O=C(CCCCC[Se][Se]CCCCCC(=O)Nc1ccccc1)Nc1ccccc1`: the Ratio IC50 in the assay on HeLa is > 20. In assay [1], this compound showed an inhibition of 81%.

Take `N#C[Se]CCCCCC(=O)Nc1ccccc1`: the IC50 at Histone deacetylase worked out at 8.9 nM. The Ratio IC50 with HeLa worked out at 20. In assay [1], this compound yielded an inhibition of 95%.
